For the test, the system named is SARS-CoV-2. Put plainly: microbe, parasite or virus in culture. The format is cell-based.
[1] abbreviates: Severe acute respiratory syndrome coronavirus 2, VeroE6/TMPRSS2.
The mark [2] stands for this setting: Severe acute respiratory syndrome coronavirus 2, VeroE6/TMPRSS2, Beta strain (TY8-612).
The mark [3] stands for this setting: Severe acute respiratory syndrome coronavirus 2, VeroE6/TMPRSS2, Gamma strain (TY7-501).
Setting [4] is: Severe acute respiratory syndrome coronavirus 2, VeroE6/TMPRSS2, Gamma strain (TY7-503).

We go through two molecules from US20250127788A1, “PHARMACEUTICAL COMPOSITION CONTAINING TRIAZINE DERIVATIVE” (Shionogi & Co., Ltd., priority 2021, published 2025).

By EC50 is commonly meant the concentration that produces a half-maximal response. Higher therefore signals a need for much substance.

`Cn1cnc(Cn2c(=O)[nH]/c(=N\c3cc4cn(C)nc4cc3Cl)n(Cc3cc(F)c(F)cc3F)c2=O)n1`: the EC50 by setting is: under setting [1], 370 nM; under setting [2], 400 nM; (Severe acute respiratory syndrome coronavirus 2, VeroE6/TMPRSS2, Delta strain (TY11-927-P1)) 410 nM; under setting [3], 500 nM; under setting [4], 430 nM; (Severe acute respiratory syndrome coronavirus 2, VeroE6/TMPRSS2, Lambda strain (TY33-456)) 270 nM. Also, the EC50 was 430 nM (Severe acute respiratory syndrome coronavirus 2, VeroE6/TMPRSS2, Mu strain (TY26-717)) and 290 nM (Severe acute respiratory syndrome coronavirus 2, VeroE6/TMPRSS2, Theta strain (TY28-444)).

In the case of `Cc1cncc(-n2c(=O)nc(Nc3cc4cn(C)nc4cc3Cl)n(Cc3cc(F)c(F)c(F)c3)c2=O)c1`, the EC50 reads like this: under setting [1], 120 nM; (Severe acute respiratory syndrome coronavirus 2, VeroE6/TMPRSS2, Alpha strain (QHN001)) 140 nM; (Severe acute respiratory syndrome coronavirus 2, VeroE6/TMPRSS2, Alpha strain (QHN002)) 130 nM; (Severe acute respiratory syndrome coronavirus 2, VeroE6/TMPRSS2, Alpha strain (QK002)) 160 nM; under setting [2], 160 nM; under setting [3], 220 nM. Under setting [4], this molecule showed an EC50 of 150 nM.
